# Results: a melting point compilation (Tetko et al.; mined from patent text by program, amines drawn as free bases though some values may be those of a salt)
row,Structure (SMILES),melting point [°C]
1,Cc1nc(NC(=O)c2cnn3c(C(F)F)cc(-c4ccc(C(F)(F)F)cc4)nc23)sc1S(=O)(=O)NCCO,134
2,Nc1cc(C(=O)O)cc(S(N)(=O)=O)c1Oc1cccc(C(F)(F)F)c1,270
3,CN(C)c1ccc(C(=O)C(C)(C)N(C)C)cc1,89 to 91
4,CCOC(=O)C1(c2ccccc2)CCC=CC1OC(C)=O (stereo not given),72 to 73
5,COc1cc(OCc2cn(-c3ccc(C(F)(F)F)cn3)nc2C)ccc1CCC(=O)O,158 to 159
6,Cc1ccc(S(=O)(=O)Nc2nc(-c3cc(F)cc(C(F)(F)F)c3)cs2)cc1,123 to 125
7,CN1C(C(=O)Nc2nncs2)=C(O)c2ccc3ccccc3c2S1(=O)=O,217 to 219
8,O=C1OCc2c1cc1ccc3c(c1c2-c1ccc2ccccc2c1)OCO3,224 to 226
9,CCc1nnc(NS(=O)(=O)c2ccc(NC(C)=O)cc2)s1,197 to 198
10,CCNC(=O)c1ccccc1Nc1nc(Nc2ccc3c(c2)CCN(CCOC)CC3)ncc1Cl,150 to 184
11,CS(=O)(=O)c1nnc(S(=O)(=O)Cc2ccc(Cl)cc2)s1,159 to 160
12,COC(=O)c1sc2ccc(OCc3cccnc3)cc2c1Cl,126 to 128
13,CCOC(=O)c1c(C2CC2)nc(CC)n1Cc1ccc2oc(-c3ccccc3-c3nnn[nH]3)c(Br)c2c1,132 to 137
14,C[C@@H]1Cc2ccsc2[C@H](C)N1CCNC(=O)c1ccc(NC(=O)C(C)(C)C)cc1 (relative stereo),133
15,CC(=O)OC1C(COC(=O)c2ccccc2)OC(n2cc(F)c(=O)[nH]c2=O)C1F (stereo not given),177 to 179
16,C=CC(=O)N(c1cc(-n2ncc(=O)n(C)c2=O)c(F)cc1C#N)S(=O)(=O)CC,118
17,O=C(Nc1ccc(N2CCN(C(=O)Nc3ccc(OCCO)cc3Cl)CC2)cc1)Nc1ccccc1F,213 to 217
18,C1=C(c2cccc3ccccc23)CCN(Cc2ccccc2)C1,72 to 74
19,CC(=NNc1ccc(C2=NNC(=O)CC2)cc1)c1cnccn1,197 to 202
20,CCOC(=O)c1cnc2c(cnn2-c2ccccc2)c1Cl,89 to 91
21,O=C(Nc1ccccc1C(c1ccc(O)cc1)c1ccc(O)cc1)C1CCCCC1,220 to 223
22,CC(C)(C)OC(=O)N1C(=O)c2ccccc2C1=O,90 to 92
23,CSc1ncc(C(C)O)c(N)n1 (stereo not given),140 to 142
24,CC(C)(C)OC(=O)N(O)C(=O)[C@H](N)COCc1ccccc1,128 to 130
25,Cc1cc(NC(=O)c2cccc(CSc3ncnc4[nH]ncc34)c2)ccc1C(C)C,187 to 189

row,Structure (SMILES),melting point [°C]
1,Cc1cc(Cl)nnc1NS(=O)(=O)c1cccc2c(N(C)C)cccc12,182 to 186
2,Nc1ncccc1OCc1cc2c(cc1Cl)OCO2,100 to 104
3,CCOC(=O)/C=C(C)/C(F)=C/C=C(C)/C=C/c1c(Cl)cc(OC)c(C)c1Cl,127 to 132
4,Cc1nnc(-c2ccc3occ(-c4ccc(OS(C)(=O)=O)cc4)c3c2)o1,139 to 140
5,CNc1nc(Nc2ccc(Cl)c(Cl)c2)ncc1NS(C)(=O)=O,263 to 266
6,CCC(=O)COc1ccc(CC2SC(=O)N(C(c3ccccc3)(c3ccccc3)c3ccccc3)C2=O)cc1 (stereo not given),155 to 156
7,COC(=O)NOCC(=O)OCOC(=O)Oc1c(Br)cc(C#N)cc1Br,110 to 111
8,Cc1cc2c(cc1C#N)C(c1ccccn1)=CC(C)(C)CO2,171
9,CCCN(CCC)S(=O)(=O)c1cccc(C(=O)Nc2cccc(Br)c2)c1,105 to 107
10,CCN1C(=O)C(C)(C)C(=O)N(C)c2cc(CN(CCN3C(=O)CCc4ccccc43)Cc3cccnc3C)ccc21,130 to 131
11,Nc1cccc(-c2ccc(-c3ccc(CCN4CC5C(N)C5C4)cc3)cc2)n1 (stereo not given),205
12,CCn1c2ccc(C=O)cc2c2cc(C=C(c3ccccc3)c3ccccc3)ccc21,166 to 167
13,CCOC(=O)Cc1nsc(Nc2ccc(F)c(F)c2)n1,84 to 90
14,CC(C)Nc1nc2cc(C#N)ccc2[nH]1,185 to 190
15,CC(=O)N1c2ccc(O)cc2Sc2cc([N+](=O)[O-])ccc21,202 to 205
16,CC(OC(=O)C(F)(F)F)C1CCC2C3CC=C4CC(NC(=O)C(F)(F)F)CCC4(C)C3CCC12C (stereo not given),140
17,O=C(Nc1cccc(F)n1)c1cc(-c2ccc(Cl)cc2)nc2ccccc12,200 to 201
18,CCOC(=O)c1ccc(O[Si](C)(C)C(C)(C)C)c(OC)c1,103
19,CCOC(=O)c1ccc(N=C(Nc2ccc(C(=O)OCC)cc2)c2ccc(C)cc2)cc1,246 to 260
20,CNCc1ccc(Cc2nc3ccccc3[nH]2)cc1,157 to 160
21,COc1c(OS(=O)(=O)c2ccc(C)cc2)cc2c(c1OC)C1=C(CCC1)C(N1C(=O)c3ccccc3C1=O)CC2 (stereo not given),139
22,CNCCC1CN(c2c(F)cc3c(=O)c(C(=O)O)cn(C4CC4)c3c2F)CCO1 (stereo not given),243 to 251
23,CC(C)c1cc(-c2ccc3c(c2)OCO3)[nH]c(=O)c1C#N,266 to 268
24,COc1ccc(C)cc1NC(=O)Nc1ccc(N2CCN(C(=O)Nc3ccc(CO)cc3C)CC2)cc1,138 to 141
25,Brc1ccc2cc(Nc3ccccc3)ccc2c1,126 to 128
